Experimental findings from PubChem BioAssay AID1259407 (Chemical Carcinogenesis Research Information System (CCRIS), 2018) are described below.

Each structure is given as a SMILES string. Calls of active or inactive are those of the source. The rule behind the calls is not given here.

In this data set the test system is CCRIS mutagenicity, Ames/micronucleus/aberration tests. The data set is described as follows: CCRIS mutagenicity studies.
The mark [1] stands for this setting: Test System: AMES SALMONELLA TYPHIMURIUM, Strain/Indicator: TA98, Metabolic Activation: NONE, Method: PREINCUBATION
Setting [2] is: Test System: AMES SALMONELLA TYPHIMURIUM, Strain/Indicator: TA100, Metabolic Activation: NONE, Method: PREINCUBATION
Where [3] appears, read: Test System: AMES SALMONELLA TYPHIMURIUM, Strain/Indicator: TA100, Metabolic Activation: RAT, LIVER, S-9, AROCLOR 1254, Method: PREINCUBATION
[4] abbreviates: Test System: AMES SALMONELLA TYPHIMURIUM, Strain/Indicator: TA100, Metabolic Activation: NONE, Method: STANDARD PLATE.
Setting [5] is: Test System: AMES SALMONELLA TYPHIMURIUM, Strain/Indicator: TA102, Metabolic Activation: NONE, Method: STANDARD PLATE.
The mark [6] stands for this setting: Test System: AMES SALMONELLA TYPHIMURIUM, Strain/Indicator: TA1537, Metabolic Activation: NONE, Method: STANDARD PLATE.
Setting [7] is: Test System: AMES SALMONELLA TYPHIMURIUM, Strain/Indicator: TA98, Metabolic Activation: NONE, Method: STANDARD PLATE.
Where [8] appears, read: Test System: AMES SALMONELLA TYPHIMURIUM, Strain/Indicator: TA98, Metabolic Activation: RAT, LIVER, S-9, AROCLOR 1254, Method: STANDARD PLATE.
[9] abbreviates: Test System: AMES SALMONELLA TYPHIMURIUM, Strain/Indicator: TA100, Metabolic Activation: RAT, LIVER, S-9, AROCLOR 1254, Method: STANDARD PLATE.
[10] abbreviates: Test System: AMES SALMONELLA TYPHIMURIUM, Strain/Indicator: TA1535, Metabolic Activation: NONE, Method: STANDARD PLATE.
The mark [11] stands for this setting: Test System: AMES SALMONELLA TYPHIMURIUM, Strain/Indicator: TA102, Metabolic Activation: RAT, LIVER, S-9, AROCLOR 1254, Method: STANDARD PLATE.

Take `Brc1cccc(-c2ccccc2)c1`: the mutagenic call (Test System: AMES SALMONELLA TYPHIMURIUM, Strain/Indicator: TA98, Metabolic Activation: HAMSTER, LIVER, S-9, AROCLOR 1254, Method: PREINCUBATION) was “inactive; negative”; the mutagenic call under setting [1] is “inactive; negative”; the mutagenic call (Test System: AMES SALMONELLA TYPHIMURIUM, Strain/Indicator: TA98, Metabolic Activation: RAT, LIVER, S-9, AROCLOR 1254, Method: PREINCUBATION) is “inactive; negative”; the mutagenic call (Test System: AMES SALMONELLA TYPHIMURIUM, Strain/Indicator: TA100, Metabolic Activation: HAMSTER, LIVER, S-9, AROCLOR 1254, Method: PREINCUBATION) is “inactive; negative”; the mutagenic call under setting [2] was “inactive; negative”; the mutagenic call under setting [3] is “inactive; negative”. Also, the mutagenic call (Test System: AMES SALMONELLA TYPHIMURIUM, Strain/Indicator: TA1535, Metabolic Activation: HAMSTER, LIVER, S-9, AROCLOR 1254, Method: PREINCUBATION) was “inactive; negative”; the mutagenic call (Test System: AMES SALMONELLA TYPHIMURIUM, Strain/Indicator: TA1535, Metabolic Activation: NONE, Method: PREINCUBATION) is “inactive; negative”; the mutagenic call (Test System: AMES SALMONELLA TYPHIMURIUM, Strain/Indicator: TA1535, Metabolic Activation: RAT, LIVER, S-9, AROCLOR 1254, Method: PREINCUBATION) was “inactive; negative”; the mutagenic call (Test System: AMES SALMONELLA TYPHIMURIUM, Strain/Indicator: TA1537, Metabolic Activation: HAMSTER, LIVER, S-9, AROCLOR 1254, Method: PREINCUBATION) was “inactive; negative”; the mutagenic call (Test System: AMES SALMONELLA TYPHIMURIUM, Strain/Indicator: TA1537, Metabolic Activation: NONE, Method: PREINCUBATION) is “inactive; negative”; the mutagenic call (Test System: AMES SALMONELLA TYPHIMURIUM, Strain/Indicator: TA1537, Metabolic Activation: RAT, LIVER, S-9, AROCLOR 1254, Method: PREINCUBATION) is “inactive; negative”.

Turning to `CCCCCCNC(=O)n1cc(F)c(=O)[nH]c1=O`, the mutagenic call runs as follows: (Test System: AMES SALMONELLA TYPHIMURIUM, Strain/Indicator: TA98, Metabolic Activation: S-9, Method: STANDARD PLATE) “inactive; negative”; under setting [4], “inactive; negative”; (Test System: AMES SALMONELLA TYPHIMURIUM, Strain/Indicator: TA100, Metabolic Activation: S-9, Method: STANDARD PLATE) “inactive; negative”; under setting [5], “inactive; negative”; under setting [6], “inactive; negative”; (Test System: AMES SALMONELLA TYPHIMURIUM, Strain/Indicator: TA1537, Metabolic Activation: S-9, Method: STANDARD PLATE) “inactive; negative”. In addition, the mutagenic call runs as follows: (Test System: E. COLI, Strain/Indicator: WP2 (HCR), Metabolic Activation: NONE, Method: STANDARD PLATE) “inactive; negative”; (Test System: E. COLI, Strain/Indicator: WP2 (HCR), Metabolic Activation: S-9, Method: STANDARD PLATE) “inactive; negative”.

On to `O=c1[nH]c2ccccc2n1C1CCN(CCCC(c2ccc(F)cc2)c2ccc(F)cc2)CC1`, for which the mutagenic call by setting is: under setting [7], “inactive; negative”; under setting [8], “inactive; negative”; under setting [4], “inactive; negative”; under setting [9], “inactive; negative”; under setting [10], “inactive; negative”; (Test System: AMES SALMONELLA TYPHIMURIUM, Strain/Indicator: TA1535, Metabolic Activation: RAT, LIVER, S-9, AROCLOR 1254, Method: STANDARD PLATE) “inactive; negative”. The mutagenic call is “inactive; negative” under setting [6] and “inactive; negative” (Test System: AMES SALMONELLA TYPHIMURIUM, Strain/Indicator: TA1537, Metabolic Activation: RAT, LIVER, S-9, AROCLOR 1254, Method: STANDARD PLATE).

For `CCCC(=O)OCc1ccccc1[N+](=O)[O-]`, the mutagenic call reads like this: under setting [1], “inactive; negative”; under setting [2], “inactive; negative”; under setting [3], “inactive; negative”.

As to `CCc1nc2ccc(NC)c(C)c2nc1CC`, the mutagenic call runs as follows: under setting [1], “inactive; negative”; (Test System: AMES SALMONELLA TYPHIMURIUM, Strain/Indicator: TA98, Metabolic Activation: RAT, LIVER, S-9, PCB, Method: PREINCUBATION) “active; positive”; under setting [2], “inactive; negative”; (Test System: AMES SALMONELLA TYPHIMURIUM, Strain/Indicator: TA100, Metabolic Activation: RAT, LIVER, S-9, PCB, Method: PREINCUBATION) “active; positive”.

Consider `Cc1cc2nc3ccc(=[N+](C)C)cc-3sc2cc1N`, for which the mutagenic call (Test System: AMES SALMONELLA TYPHIMURIUM, Strain/Indicator: TA97A, Metabolic Activation: NONE, Method: STANDARD PLATE) was “active; positive”; the mutagenic call (Test System: AMES SALMONELLA TYPHIMURIUM, Strain/Indicator: TA97A, Metabolic Activation: RAT, LIVER, S-9, AROCLOR 1254, Method: STANDARD PLATE) is “active; positive”; the mutagenic call under setting [7] was “inactive; negative”; the mutagenic call under setting [8] was “active; positive”; the mutagenic call under setting [4] is “inactive; negative”; the mutagenic call under setting [9] was “active; positive”. Moreover, the mutagenic call reads like this: under setting [5], “inactive; negative”; under setting [11], “active; positive”.

With `CC1=C(Cl)C(=O)NC1=O`, the mutagenic call under setting [4] is “inactive; negative”.

On to `CSCCC(=O)N1[C@@H](c2ccccc2O)SC[C@H]1C(=O)O`, for which the mutagenic call is, setting by setting: under setting [7], “inactive; negative”; under setting [4], “inactive; negative”; under setting [10], “inactive; negative”; under setting [6], “inactive; negative”; (Test System: AMES SALMONELLA TYPHIMURIUM, Strain/Indicator: TA1538, Metabolic Activation: NONE, Method: STANDARD PLATE) “inactive; negative”; (Test System: E. COLI, Strain/Indicator: WP2, Metabolic Activation: NONE, Method: STANDARD PLATE) “inactive; negative”. Moreover, under “Test System: E. COLI, Strain/Indicator: WP2 UVRA, Metabolic Activation: NONE, Method: STANDARD PLATE”, the mutagenic call is “inactive; negative”.

As for `Nc1cc([N+](=O)[O-])cc([N+](=O)[O-])c1`, the mutagenic call was “active; positive” under setting [1]; “active; positive” under setting [7]; “active; positive” under setting [8]; “active; positive” (Test System: AMES SALMONELLA TYPHIMURIUM, Strain/Indicator: TA98, Metabolic Activation: RAT, LIVER, S-9, KANECHLOR 500, Method: PREINCUBATION); “active; positive” under setting [2]; “active; positive” under setting [4]. For the same compound, the mutagenic call is “active; positive” under setting [9] and “active; positive” (Test System: AMES SALMONELLA TYPHIMURIUM, Strain/Indicator: TA100, Metabolic Activation: RAT, LIVER, S-9, KANECHLOR 500, Method: PREINCUBATION).

With `Cc1cccc2c3c(c4cc5ccccc5cc4c12)O3`, the mutagenic call under setting [1] was “active; positive”.

Consider `C=CC(Cl)CCl` (stereo not given), for which the mutagenic call runs as follows: (Test System: AMES SALMONELLA TYPHIMURIUM, Strain/Indicator: TA102, Metabolic Activation: RAT LIVER S-9, PHENOBARBITAL AND 5,6-BENZOFLAVONE, Method: STANDARD PLATE) “inactive; negative”; (Test System: AMES SALMONELLA TYPHIMURIUM, Strain/Indicator: TA2638, Metabolic Activation: RAT LIVER S-9, PHENOBARBITAL AND 5,6-BENZOFLAVONE, Method: STANDARD PLATE) “inactive; negative”; (Test System: E. COLI, Strain/Indicator: WP2 (PKM101), Metabolic Activation: RAT LIVER S-9, PHENOBARBITAL AND 5,6-BENZOFLAVONE, Method: STANDARD PLATE) “inactive; negative”; (Test System: E. COLI, Strain/Indicator: WP2 UVRA (PKM101), Metabolic Activation: RAT LIVER S-9, PHENOBARBITAL AND 5,6-BENZOFLAVONE, Method: STANDARD PLATE) “inactive; negative”.

Regarding `O=[N+]([O-])c1c2c3c(ccc4cccc(c43)CC2)c2ccccc12`, the mutagenic call is “active; positive” under setting [7] and “inactive; negative” under setting [4].

Take `Cc1ccc(N(N)c2ccc(C)cc2)cc1`: the mutagenic call is, setting by setting: under setting [4], “inactive; negative”; under setting [9], “active; positive”; under setting [5], “active; positive”; under setting [11], “active; positive”.
